Reference: the supplement of paper PMC10307832

Key:
Experiment in all cases: relative viability (nuclei count vs DMSO), 5 days (fraction); higher = more cells survive
BAY61-3606 = compound: COC1=C(C=C(C=C1)C2=CC3=NC=CN3C(=N2)NC4=C(C=CC=N4)C(=O)N)OC [BAY61-3606]
Outline: (§1)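 Lung cancer cell lines in 1536-well plates were exposed by pinning to five library-drug doses (not always all listed) √10 apart, following an overnight hold at 37 °C. MetaXpress counted Hoechst-stained nuclei from 4× images taken after 5 days without medium change. Viability is the median ratio of treated-well to vehicle-well nuclei across plates. Plates required control CV below 25% and at least one doubling.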

Doxorubicin = compound: COc1cccc2c1C(=O)c1c(O)c3c(c(O)c1C2=O)C[C@@](O)(C(=O)CO)C[C@@H]3O[C@H]1C[C@H](N)[C@H](O)[C@H](C)O1 [Doxorubicin]
Outline: as §1

BAY61-3606 + Alpelisib = compound: COC1=C(C=C(C=C1)C2=CC3=NC=CN3C(=N2)NC4=C(C=CC=N4)C(=O)N)OC [BAY61-3606] + Cc1nc(NC(=O)N2CCC[C@H]2C(N)=O)sc1-c1ccnc(C(C)(C)C(F)(F)F)c1 [Alpelisib] (partner 2 µM)
Outline: (§2)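 Nuclei were stained with Hoechst during a one-step fixation (final 0.05% Triton X-100, 1% formaldehyde, 1 ug/ml Hoechst) carried out 5 days after dosing, then counted on 4× images. The cells, lung cancer lines in 1536-well plates, had been dosed by pin tool the day after seeding with one drug alone or a fixed anchor-drug dose plus five library-drug doses (not always all listed) in √10 steps. Relative viability is the nuclei count in treated wells divided by that in vehicle wells, and each value is the median of duplicate plates.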

Doxorubicin + Bortezomib = compound: COc1cccc2c1C(=O)c1c(O)c3c(c(O)c1C2=O)C[C@@](O)(C(=O)CO)C[C@@H]3O[C@H]1C[C@H](N)[C@H](O)[C@H](C)O1 [Doxorubicin] + CC(C)C[C@H](NC(=O)[C@H](Cc1ccccc1)NC(=O)c1cnccn1)B(O)O [Bortezomib] (partner 0.002 µM)
Outline: as §2

Cell Line | relative viability (BAY61-3606; 0.02 µM) | relative viability (BAY61-3606; 0.06325 µM) | relative viability (BAY61-3606; 0.2 µM) | relative viability (BAY61-3606; 0.6325 µM) | relative viability (BAY61-3606; 2 µM) | relative viability (Doxorubicin; 0.001 µM) | relative viability (Doxorubicin; 0.003162 µM) | relative viability (Doxorubicin; 0.01 µM) | relative viability (Doxorubicin; 0.03162 µM) | relative viability (Doxorubicin; 0.1 µM) | relative viability (BAY61-3606 + Alpelisib; first compound 0.02 µM) | relative viability (BAY61-3606 + Alpelisib; first compound 0.06325 µM) | relative viability (BAY61-3606 + Alpelisib; first compound 0.2 µM) | relative viability (BAY61-3606 + Alpelisib; first compound 0.6325 µM) | relative viability (BAY61-3606 + Alpelisib; first compound 2 µM) | relative viability (Doxorubicin + Bortezomib; first compound 0.001 µM) | relative viability (Doxorubicin + Bortezomib; first compound 0.003162 µM) | relative viability (Doxorubicin + Bortezomib; first compound 0.01 µM) | relative viability (Doxorubicin + Bortezomib; first compound 0.03162 µM) | relative viability (Doxorubicin + Bortezomib; first compound 0.1 µM)
NCI-H2228 | 1.18 | 0.922 | 0.944 | 1.06 | 0.792 | 0.859 | 1 | 0.822 | 0.606 | 0.339 | 0.702 | 0.654 | 0.782 | 0.736 | 0.561 | 0.88 | 1.05 | 0.617 | 0.254 | 0.124
EMC-BAC-2 | 1.04 | 1 | 0.921 | 0.988 | 0.942 | 1.34 | 0.844 | 0.748 | 0.469 | 0.326 | 0.817 | 0.837 | 0.75 | 0.85 | 0.802 | 1.11 | 1.1 | 0.997 | 0.518 | 0.451
NCI-H2009 | 1.06 | 1.03 | 0.997 | 0.989 | 0.894 | 0.99 | 1.01 | 0.94 | 0.843 | 0.504 | 1.11 | 1.14 | 1.09 | 1.21 | 1.08 | 0.914 | 1.1 | 0.912 | 0.572 | 0.266
NCI-H661 | 1.02 | 0.993 | 0.991 | 0.963 | 0.976 | 1.01 | 1.06 | 0.957 | 0.853 | 0.634 | 0.754 | 0.571 | 0.694 | 0.57 | 0.689 | 0.919 | 0.849 | 0.836 | 0.776 | 0.865
NCI-H838 | 1.03 | 0.942 | 0.999 | 0.934 | 0.668 | 1 | 0.988 | 0.964 | 0.807 | 0.552 | 0.988 | 0.963 | 0.982 | 1.02 | 0.888 | 0.89 | 1.03 | 0.967 | 0.384 | 0.17
NCI-H1915 | 0.993 | 0.996 | 0.826 | 1.01 | 0.786 | 0.955 | 1.03 | 0.966 | 1.03 | 1.01 | 1.07 | 1.08 | 1.06 | 1.03 | 0.93 | 0.994 | 0.943 | 0.927 | 0.94 | 1
NCI-H441 | 1.12 | 1.15 | 1.01 | 1.15 | 0.682 | 0.687 | 0.957 | 0.677 | 0.359 | 0.326 | 0.734 | 0.796 | 0.809 | 0.848 | 0.439 |  | 0.452 | 0.392 | 0.295 | 0.315
NCI-H1355 | 1.08 | 0.916 | 0.937 | 0.961 | 0.882 | 0.888 | 1.04 | 1.01 | 0.989 | 1.01 | 0.944 | 0.811 | 0.791 | 0.713 | 0.534 | 1.08 | 1.32 | 1.14 | 1.28 | 1.29
NCI-H1651 | 1.01 | 0.93 | 0.986 | 1.01 | 0.883 | 0.949 | 0.96 | 0.925 | 0.642 | 0.635 | 0.991 | 0.964 | 0.938 | 0.967 | 0.738 | 0.987 | 0.958 | 0.869 | 0.842 | 0.902
NCI-H2023 | 1.14 | 1.05 | 1 | 1.16 | 0.697 | 0.873 | 0.903 | 0.706 | 0.209 | 0.0985 | 0.614 | 0.607 | 0.604 | 0.6 | 0.471 | 0.456 | 0.889 | 0.69 | 0.152 | 0.0962
LU99A | 1.04 | 0.953 | 1.01 | 0.967 | 0.702 | 0.938 | 1.02 | 0.893 | 0.838 | 0.813 | 0.508 | 0.521 | 0.508 | 0.492 | 0.251 | 1.1 | 1.23 | 1.14 | 0.764 | 0.5
NCI-H322M | 1.04 | 0.919 | 1 | 0.921 | 0.843 | 1 | 0.887 | 0.976 | 0.904 | 0.568 | 0.9 | 0.792 | 0.852 | 0.898 | 0.841 | 1.45 | 1.21 | 1.28 | 1.27 | 1.18
LOU-NH91 | 0.991 | 0.816 | 0.965 | 0.996 | 0.862 | 0.692 | 0.948 | 1.05 | 0.914 | 0.761 | 0.764 | 0.643 | 0.73 | 0.798 | 0.541 | 0.493 | 0.477 | 0.479 | 0.487 | 0.407
NCI-H727 | 1 | 0.923 | 0.983 | 1.01 | 0.901 | 0.874 | 0.971 | 0.76 | 0.928 | 0.812 | 0.611 | 0.615 | 0.609 | 0.721 | 0.488 | 0.794 | 0.985 | 0.656 | 0.658 | 0.613
RERF-LC-KJ | 1.04 | 1.03 | 0.93 | 1.06 | 0.791 | 0.986 | 1.04 | 0.986 | 0.713 | 0.904 | 0.957 | 0.751 | 0.765 | 0.853 | 0.629 | 1.03 | 1.2 | 1.03 | 0.809 | 0.967
H3255 | 0.976 | 0.905 | 0.928 | 1.16 | 0.898 | 0.892 | 0.993 | 0.931 | 0.849 | 0.727 | 0.708 | 0.635 | 0.673 | 0.874 | 0.735 | 0.675 | 0.889 | 0.856 | 0.589 | 0.306
NCI-H1563 | 1.16 | 0.993 | 1.01 | 0.994 | 0.814 | 0.939 | 0.939 | 0.747 | 0.698 | 0.683 | 1.02 | 0.905 | 0.894 | 0.894 | 0.683 | 0.716 | 0.772 | 0.594 | 0.515 | 0.421
LXF-289 | 0.95 | 1.07 | 0.874 | 1.04 | 1.05 | 0.952 | 1.03 | 1.01 | 1.05 | 1.01 | 0.991 | 1.09 | 1.03 | 1.14 | 1.05 | 1.01 | 1.02 | 0.998 | 0.996 | 0.926
HOP-62 | 0.969 | 1 | 0.954 | 0.956 | 0.964 | 0.937 | 1.04 | 1 | 1.04 | 1.02 | 0.901 |  | 0.874 | 0.947 | 0.64 | 0.779 | 0.864 | 0.657 | 0.767 | 0.632
HCC-44 | 0.947 | 0.989 | 1.03 | 1.03 | 1.05 | 0.998 | 0.992 | 0.941 | 1.03 | 0.894 | 0.866 | 0.909 | 0.806 | 0.997 | 0.833 | 0.947 | 0.988 | 0.891 | 0.949 | 0.828
BEN | 1.05 | 0.891 | 1.1 | 1.07 | 1.05 | 1.19 | 1.03 | 0.985 | 0.683 | 0.85 | 1.23 | 0.831 | 1.24 | 1.24 | 0.958 | 1.01 | 1.05 | 0.821 | 0.632 | 0.74
NCI-H2405 | 1.07 | 0.984 | 0.977 | 0.968 | 0.84 | 0.972 | 1.04 | 1.08 | 0.997 | 0.626 | 1.03 | 0.619 | 0.682 | 0.881 | 0.574 | 1 | 1.01 | 0.973 | 0.994 | 0.994
201T | 0.996 | 0.959 | 1 | 1.01 | 0.95 | 0.867 | 0.985 | 0.987 | 0.978 | 0.942 | 1.07 | 1.03 | 1.05 | 1.1 | 1.09 | 1.06 | 0.991 | 1.14 | 1.15 | 1.05
NCI-H650 | 1 | 0.802 | 0.818 | 0.942 | 0.745 | 1 | 0.86 | 0.92 | 0.83 | 0.741 | 1.27 | 1.12 | 1 | 1.1 | 0.871 | 0.862 | 0.688 | 0.914 | 0.697 | 0.511
PC-3 [JPC-3] | 1.04 | 1 | 1 | 1.02 | 0.939 | 1.08 | 1.05 | 1.04 | 0.998 | 0.982 | 1.05 | 1.08 | 1.04 | 1.05 | 0.878 | 0.81 | 0.926 | 0.863 | 0.79 | 0.8
HCC-15 | 1 | 0.971 | 0.994 | 0.988 | 0.896 | 0.807 | 1.08 | 0.975 | 0.811 | 0.654 | 0.836 | 0.94 | 0.929 | 0.862 | 0.768 | 0.953 | 1.02 | 0.923 | 0.623 | 0.636
ABC-1 | 1.04 | 0.942 | 0.986 | 1.03 | 0.854 | 0.943 | 1.01 | 0.811 | 0.414 | 0.307 | 1.06 | 1.14 | 1.15 | 0.968 | 1.06 | 0.304 | 0.324 | 0.364 | 0.273 | 0.251
LCLC-97TM1 | 1.06 | 1.07 | 1 | 0.892 | 1.01 | 0.909 | 1.11 | 0.909 | 0.822 | 0.749 | 0.232 |  | 0.244 | 0.231 | 0.238 | 0.528 | 0.434 | 0.265 | 0.151 | 0.0908
NCI-H647 | 1.15 | 0.897 | 0.946 | 0.979 | 0.616 | 0.953 | 1.07 | 0.987 | 0.495 | 0.201 | 1.02 | 1.36 | 0.922 | 1.03 | 0.534 | 1.03 | 1.04 | 0.907 | 0.213 | 0.111
EPLC-272H | 1.02 | 1.05 | 0.894 | 0.873 | 0.729 | 0.84 | 0.949 | 0.932 | 0.792 | 0.964 | 1.03 | 0.935 | 1 | 0.986 | 0.905 | 0.827 | 0.98 | 0.897 | 1.05 | 0.931
